Series [1] can be described thus: Chelation of metal ions in aqueous solutions. It counts as physicochemical. The procedure:
(§1) The 1,1,3-trisubstituted hydroxyguanidines of the invention chelate metal ions in aqueous solutions, and the chelate complexes can then be extracted by a solvent such as 1-butanol. The following is an example.
(§2) Aqueous solutions of cobaltous chloride and cupric acetate were prepared by dissolving 0.5 g in separate 5 ml portions of water. One ml of each solution was mixed with 1 ml of an aqueous methanol solution of 1,3-dimethyl-1-benzyl-2-hydroxyguanidine made by dissolving 0.2 g of the hydroxyguanidine in 5 ml methanol and 5 ml water. The addition was followed by an immediate color change.

For series [2], the system named is tetrabenazine-induced ptosis in mice. Briefly: Prevention of tetrabenazine-induced sedation and depression in mice (relief of ptosis). It is filed as in vivo, Carworth CF1 S female mice. To be noted: Mus musculus, 1 h; oral; 5, 25 and 125 mg/kg; tetrabenazine 32 mg/kg i.p. 30 min later; read 30 min after tetrabenazine; groups of 10 female mice; read-out: ptosis ED50, i.e., the dose which blocked ptosis in 50% of the mice. The procedure:
This mouse test is predictive of human antidepressant response (Everett, G.M., "The Dopa Response Potentiation Test and Its Use In Screening for Antidepressant Drugs", pp. 164-167 in "Antidepressant Drugs", Proceeding of the First International Symposium, S. Garattini and M. N. G. Dukes, eds., 1967).
Groups of 10 Carworth CF1 S female mice, 18-21 g each, were fasted 1.5 hours and were intubated with a hydroxyguanidine as antagonist to tetrabenazine at oral doses of 5, 25 and 125 mg/kg in 0.20 ml of 1% methyl cellulose (Methocel). Thirty minutes later the mice were challenged with tetrabenazine, 32 mg/kg intraperitoneally (dissolved in 0.20 ml of 0.05M KCl at pH 2.0). One hour after the hydroxyguanidine compound (30 minutes after tetrabenazine) the mice were examined for signs of exploratory activity and ptosis (eye-lid closure). Normal exploratory activity (relief from sedation) was recorded when a mouse lifted by the tail from a group of 10 in a testing box and placed on a stainless steel testing box lid (12.5 inches × 8 inches with 0.33 inch mesh) either turned its head horizontally 30° or moved to the edge of the screen within 10 seconds after being placed on the screen. Relief from ptosis was recorded when exactly 2 seconds after placing the mouse facing the observer, lid closure was less than 50% in both eyes. […]

Series [3] can be described thus: Chelation of copper ions (cupric acetate) in aqueous solution. It is filed as physicochemical. Conditions: cupric acetate in water mixed with aqueous methanol solution of hydroxyguanidine. The procedure:
as §1, §2

Series [4] can be described thus: Chelation of cobalt ions (cobaltous chloride) in aqueous solution. It is filed as physicochemical. To be noted: cobaltous chloride in water mixed with aqueous methanol solution of hydroxyguanidine. The procedure: as §1, §2
Series [5] in a line: Complex formation with titanium (tetraisopropyl titanate). It counts as physicochemical. To be noted: methanol solution of tetraisopropyl titanate.

With `CNC(=NO)N(C)c1ccccc1` [Example 2, 1-Phenyl-1,3-dimethyl-2-hydroxyguanidine], in series [1] (aqueous solutions), the “chelating of metal ions” value was “Chelating also occured”. In the case of `CCNC(=NO)N(C)c1ccccc1` [Example 3, 1-Phenyl-1-methyl-3-ethyl-2-hydroxyguanidine], the ED50 in series [2] was found to be 2.7 mg/kg. On to `CNC(=NO)N(C)Cc1ccccc1` [Example 4, 1-Benzyl-1,3-dimethyl-2-hydroxyguanidine], for which the “immediate color change of copper solution” value in series [3] is reported as “from blue to green”. Also, the “immediate color change of cobalt solution” value in series [4] is “from red to pink”. Also, the “extraction of the metal ion from water into 1-butanol” value in series [1] (cobalt and copper solutions shaken with 2-3 ml of 1-butanol) was “colored organic layers, indicative of extraction of the metal ion from the water”. Besides, in series [5], the “complex of titanium with the hydroxyguanidine” value was “a bright yellow complex of titanium with the hydroxyguanidine was formed”.

Regarding `CCNC(=NO)N(C)Cc1ccccc1` [Example 5, 1-Benzyl-1-methyl-3-ethyl-2-hydroxyguanidine], the ED50 in series [2] worked out at 19 mg/kg.

Usually ED50 stands for the midpoint of the dose-response relation.

The record behind these values is patent US4000196A, “1,1,3-Trisubstituted hydroxyguanidines” (E. I. Du Pont de Nemours and Company, priority 1974, dated 1976).
